Peptide text beside a SMILES is read from it. * marks the point of attachment. 5TAMRA = CN(C)c1ccc2c(c1)Oc1cc(N(C)C)ccc1C21OC(=O)c2cc(C(=O)*)ccc21
What was measured:
[1] = tested on: filter-grown BCECs co-cultured with rat astrocytes; experiment: Cellular viability, XTT assay; type: cell-based; conditions: 100 µM peptide, 3 h, bovine BCEC/rat astrocyte co-culture, N = 3, n = 3
Procedure: Briefly, the XTT labelling mixture was prepared by mixing electron coupling reagent with XTT labelling reagent at a 1:50 ratio. After peptide incubation, the monolayers were washed twice with 37 °C hHBSS. We applied 300 µL and 1 mL 37 °C hHBSS to the apical and basolateral compartments, respectively, prior to the addition of 150 µL XTT labelling mixture. The filters were incubated at 37 °C with horizontal shaking (90 rpm) for 1 h. Two 100 µL samples were withdrawn from the apical compartments and the absorbance measured at 466 nm using a SPECTROstar Nano plate reader (BMG Labtech, Offenburg, Germany). The relative cell viability was calculated as follows: Relative viability (%)=Asample−ASDS/Abuffer−ASDS×100% where Asample is the absorbance of the test sample, ASDS is the absorbance of the negative control (100% dead cells), and Abuffer is the absorbance of the positive control (100% viable cells).

[2] = tested on: primary bovine brain capillary endothelial cells co-cultured with primary rat astrocytes; experiment: Peptide stability on the in vitro bovine BBB model; type: in vitro ADME; conditions: FBS-free differentiation medium, 50 µM peptide, bovine BCEC/rat astrocyte co-culture, 37 °C, 90 rpm, HPLC C18, 220 and 543 nm, mean ± SD, N = 3
Procedure: BCECs co-cultured with rat astrocytes: a batch of capillary suspension was thawed and the DMSO removed by centrifugation in DMEM complete at 500× g for 5 min at room temperature. The pellet was re-suspended in DMEM complete and transferred to a culture flask (T75) coated with collagen and fibronectin (both 0.01 mg/mL in PBS). The capillary fragments were allowed to settle for 4–6 h in a humidified incubator (37 °C, 10% CO2) before changing the media to growth medium(+) (DMEM complete/ACM (1:1) with 125 µg/mL heparin) supplemented with 4 µg/mL pyromycin. On day 3, the BCECs received fresh growth medium(+) and rat astrocytes were seeded on the bottom of collagen and fibronectin coated (both 0.1 mg/mL in PBS) Transwell® plate permeable supports (Corning, Corning, NY, USA; 120,000 cells/1.12 cm^2 support with 0.4 µm pore size) in DMEM complete (37 °C, 10% CO2). On day 5, the media in the Transwell® plate was replaced by growth medium(-) (DMEM complete with 125 µg/mL heparin) and the endothelial cells detached from the flask using trypsin-EDTA (Thermo Fischer Scientific, Bedford, MA, USA). The remaining trypsin-EDTA was removed by centrifugation in DMEM complete at 1070× g for 5 min at room temperature. The endothelial cells were re-suspended in growth medium(-) and seeded on the apical side of the Transwell® plate permeable supports (100,000 cells/support). On day 8, the medium was changed to differentiation medium (DMEM containing 50 mM N-Tris-(hydroxymethyl)methyl-2-aminoethanesulfonic acid (TES), 10% FBS, 1% non-essential amino acids, 100 µg/mL penicillin/streptomycin (100 U/mL), 2 mM L-glutamine, 312.5 µM 8-(4-CPT)cyclic adenosine monophosphate, 0.5 µM dexamethasone, and 17.5 µM RO-20-1724). On day 11, the bovine BBB model was ready for use as evident by the measured transendothelial electrical resistance (TEER) values for each filter prior to experimental start.
Stability on the in vitro bovine BBB model: the differentiation medium was gently aspirated from the BCEC monolayers and replaced with 300 and 600 µL of 37 °C FBS-free differentiation medium containing 50 µM peptide on the luminal and abluminal side, respectively. The cells were incubated at 37 °C with horizontal shaking (90 rpm) for 4 h. Samples (10 µL) were withdrawn at 0, 10, 20, 30, 45, 60, 120, 180, and 240 min and two volumes of ice-cold ACN were immediately added prior to analysis by HPLC using an AdvanceBio Peptide Map column (C18, 4.6 × 150 mm, 2.7 µm particle size; Agilent, Glostrup, Denmark) connected to a Prominence system (LC-20 AD, SIL20 AC, SPD-M20A PDA, and CTO-20A modules; Shimadzu, Kyoto, Japan). Mobile phase A consisted of 95% ultrapure water and 5% ACN with 0.1% TFA and mobile phase B of 95% ACN and 5% ultrapure water with 0.1% TFA. […]

[3] = tested on: primary mouse BCECs in co-culture with primary rat astrocytes; experiment: Transport and cellular accumulation (mouse BBB model); type: in vitro ADME; conditions: 100 µM peptide, 3 h, TAMRA fluorescence; for transendothelial permeation of the mouse BBB model compared to TAMRA-NR2B9c: N = 3, n = 3 (Figure S5A); for accumulation in the cell fraction of the mouse BBB model compared to TAMRA-NR2B9c: lysate, N = 3, n = 3 (Figure S5B)
Procedure: Generation of mouse BCEC monolayers in co-culture with rat astrocytes: the capillary fragments were allowed to settle for 2–3 h before changing the media to DMEM containing 10% FBS and pyromycin (4 µg/mL). On day 3, the media was changed to DMEM containing 10% FBS and rat astrocytes seeded on the bottom of collagen and fibronectin coated (both 0.01 mg/mL in PBS) Transwell® plate permeable supports (120,000 cells/1.12 cm^2 support with 0.4 µm pore size). On day 5, the media in the Transwell® plate was changed to Complete Mouse Endothelial Cell Medium (PELOBiotech, Planegg/Martinsried, Germany). The endothelial cells were detached from the flask using trypsin-EDTA. The remaining trypsin-EDTA was removed by centrifugation in DMEM containing 10% FBS at 500× g for 5 min at room temperature. The endothelial cells were re-suspended in Complete Mouse Endothelial Cell Medium and seeded on the apical side of the Transwell® plate permeable supports (100,000 cells/support). On day 8, the medium was changed to differentiation medium. On day 10, the mouse BBB model was ready for use as evident by the measured transendothelial electrical resistance (TEER) values for each filter prior experimental start.
Transport across bovine or mouse BCEC monolayers co-cultured with rat astrocytes was carried out over 3 h at 37 °C with horizontal shaking (90 rpm). TEER was measured at room temperature using an Endohm 12 cup (World Precision Instruments, Sarasota, FL, USA) connected to a Millicell-ERS device (Millipore, Bedford, MA, USA). TEER was measured before application of the peptides and after each experiment. The bovine model had initial TEER values ranging from 771 to 1332 Ω·cm^2, whereas the mouse model had initial TEER values ranging from 136 to 217 Ω·cm^2.
The withdrawn volume was replaced with media.
Transported peptide was calculated based on fluorescence using the same method as described for peptides applied to the bovine model. Subsequently, the peptide solutions were removed from the cells and the filters washed thrice with 4 °C hHBSS. To isolate the peptides accumulated in the cell fraction, the filter inserts were cut out and 250 µL of ice-cold lysis buffer added. The peptides were retrieved and quantified as described for the cell uptake fraction obtained following the permeation study using the bovine model.

Compound: CC[C@H](C)[C@H](NC(=O)[C@H](CO)NC(=O)[C@H](CO)NC(=O)[C@H](CC(C)C)NC(=O)[C@H](CCCCN)NC(=O)c1ccc2c(c1)C(=O)OC21c2ccc(N(C)C)cc2Oc2cc(N(C)C)ccc21)C(=O)N[C@@H](CCC(=O)O)C(=O)N[C@@H](CO)C(=O)N[C@@H](CC(=O)O)C(=O)N[C@H](C(=O)O)C(C)C [TAMRA-NR2B9c] (5TAMRA-KLSSIESDV-OH)
- cell viability compared to media-treated control cells [1]: did not decrease cell viability
- % remaining after 4 h of luminal incubation on the BCECs [2]: 95.7% ± 1.6%

Compound: CC[C@H](C)[C@H](NC(=O)CCOCCOCCN(CCOCCOCCC(=O)N[C@H](C(=O)N[C@@H](CCC(=O)O)C(=O)N[C@H](C(=O)N[C@@H](CC(=O)O)C(=O)N[C@H](C(=O)O)C(C)C)[C@@H](C)O)[C@@H](C)CC)C(=O)[C@H](CCCNC(=N)N)NC(=O)[C@H](CCCNC(=N)N)NC(=O)[C@H](CCCNC(=N)N)NC(=O)[C@H](CCC(N)=O)NC(=O)[C@H](CCCNC(=N)N)NC(=O)[C@H](CCCNC(=N)N)NC(=O)[C@H](CCCCN)NC(=O)[C@H](CCCCN)NC(=O)[C@H](CCCNC(=N)N)NC(=O)CNC(=O)[C@H](Cc1ccc(O)cc1)NC(=O)c1ccc2c(c1)C(=O)OC21c2ccc(N(C)C)cc2Oc2cc(N(C)C)ccc21)C(=O)N[C@@H](CCC(=O)O)C(=O)N[C@H](C(=O)N[C@@H](CC(=O)O)C(=O)N[C@H](C(=O)O)C(C)C)[C@@H](C)O [TAMRA-Tat-N-dimer]
- cell viability compared to media-treated control cells [1]: slight, but non-significant, decrease
- transendothelial permeation of the mouse BBB model compared to TAMRA-NR2B9c [3]: lower
- % remaining after 4 h of luminal incubation on the BCECs [2]: 85.0% ± 6.0%

Compound: CC[C@H](C)[C@H](NC(=O)[C@H](CO)NC(=O)[C@H](CO)NC(=O)[C@H](CC(C)C)NC(=O)[C@H](CCCCN)NC(=O)[C@H](CCCNC(=N)N)NC(=O)[C@H](CCCNC(=N)N)NC(=O)[C@H](CCCNC(=N)N)NC(=O)[C@H](CCC(N)=O)NC(=O)[C@H](CCCNC(=N)N)NC(=O)[C@H](CCCNC(=N)N)NC(=O)[C@H](CCCCN)NC(=O)[C@H](CCCCN)NC(=O)[C@H](CCCNC(=N)N)NC(=O)CNC(=O)[C@H](Cc1ccc(O)cc1)NC(=O)c1ccc2c(c1)C(=O)OC21c2ccc(N(C)C)cc2Oc2cc(N(C)C)ccc21)C(=O)N[C@@H](CCC(=O)O)C(=O)N[C@@H](CO)C(=O)N[C@@H](CC(=O)O)C(=O)N[C@H](C(=O)O)C(C)C [TAMRA-Tat-NR2B9c] (5TAMRA-YGRKKRRQRRRKLSSIESDV-OH)
- cell viability compared to media-treated control cells [1]: slight, but non-significant, decrease
- transendothelial permeation of the mouse BBB model compared to TAMRA-NR2B9c [3]: to a greater extent than TAMRA-NR2B9c
- accumulation in the cell fraction of the mouse BBB model compared to TAMRA-NR2B9c [3]: to a greater extent than TAMRA-NR2B9c
- % remaining after 4 h of luminal incubation on the BCECs [2]: 58.6% ± 13.1%

Compound: CN(C)c1ccc2c(c1)Oc1cc(N(C)C)ccc1C21OC(=O)c2cc(C(=O)N[C@@H](Cc3ccc(O)cc3)C(=O)NCC(=O)N[C@@H](CCCNC(=N)N)C(=O)N[C@@H](CCCCN)C(=O)N[C@@H](CCCCN)C(=O)N[C@@H](CCCNC(=N)N)C(=O)N[C@@H](CCCNC(=N)N)C(=O)N[C@@H](CCC(N)=O)C(=O)N[C@@H](CCCNC(=N)N)C(=O)N[C@@H](CCCNC(=N)N)C(=O)N[C@@H](CCCNC(=N)N)C(=O)O)ccc21 [TAMRA-Tat]
- cell viability compared to media-treated control cells [1]: slight, but non-significant, decrease
- transendothelial permeation of the mouse BBB model compared to TAMRA-NR2B9c [3]: similar
- accumulation in the cell fraction of the mouse BBB model compared to TAMRA-NR2B9c [3]: to a greater extent than TAMRA-NR2B9c
- % remaining after 4 h of luminal incubation on the BCECs [2]: 76.9% ± 5.6%

Reference: article PMC7408072 (Pharmaceutics, 2020)
